The source of these data is patent US20140336187A1, “METHODS FOR TREATING LEISHMANIASIS” (HOWARD UNIVERSITY, priority 2011, published 2014).

Series [1] deals with L. donovani amastigotes. As to the kind of experiment: Antileishmanial activity on L. donovani amastigotes (resazurin assay). The series is classed as cell-based, Leishmania donovani. To be noted: for IC50: read-out: IC50 (μM) Amastigotes; for SI Values Amastigotes: SI = IC50 (mouse fibroblast) ÷ IC50 (amastigotes). As to the method:
Amastigotes were grown in MAA/20 medium (Amastigote medium consisted of: M199 medium supplemented with 0.5% Tryptone broth, 0.01 mM bathocuproinedisulfonic acid, 0.108 mM L-Cysteine, 15 mM D-glucose, 0.685 mM L-glutamine, and 0.025 mM Hemin and 20% fetal calf serum (FCS) at a pH of 5.5).
Amastigotes were plated at a concentration of 2×10^5 cells/[…] 24 hrs before treatment with various compounds. Amastigotes were treated with dilutions of compounds in 96-well microtitre plates. Dilutions of compounds ranging from 0.03 μM to 44 μM were prepared and added to amastigotes. Amastigotes were exposed to compounds for 48 hrs and were incubated at 37° C. […] After the incubation period, 20 μl Alamar Blue (12.5 mg resazurin dissolved in 100 ml distilled water) (Mikes and Steverding, 2000) were added to each well and plates were incubated for another 2 hrs. […] Decrease of fluorescence (inhibition) was expressed as percentage of the fluorescence of control cultures and was plotted against the concentrations of compounds. The IC50 values were calculated from the sigmoidal inhibition curves. Amphotericin B was used as a reference drug.

Series [2] deals with L. donovani promastigotes. The series can be described thus: Dose and time-dependent inhibitory effect on L. donovani promastigotes (2, 4, 6, 24 hours exposure). The series is classed as cell-based, Leishmania donovani. How it is done:
The Leishmanicidal properties of fifteen naphthoquinone compounds (FIG. 1) on L. donovani promastigotes proliferation were assessed by the resazurin cell viability assay. Promastigotes from axenic culture were harvested during the exponential phase of growth (at least 5-day old culture), incubated at a concentration of 2×10^5 cells/200 μl with and without dilutions of compounds in 96-well microtitre plates. Dilutions of compounds covering 0.03 μM to 44 μM were prepared. […] 20 μl Alamar Blue (12.5 mg resazurin dissolved in 100 ml distilled water (Sigma #R7017)) (Mikes and Steverding, 2000) were added to each well and plates were incubated for another 2 hrs. […] Decrease in fluorescence (inhibition), were expressed as percentage of the fluorescence of control cultures and were plotted against the concentrations of compounds. The IC50 values were calculated from the sigmoidal inhibition curves.
A time and dose-dependent inhibitory effect of all 15 imido-substituted naphthoquinone compounds was assessed on their activity on promastigotes of L. donovani. Promastigotes were plated in 96-well plates and incubated in different concentrations of each compound (0.03 to 44 μM), incubated for two hours and viabilities assayed by the resazurin assay. A two hour exposure was assessed by calculation of IC50 values of each compound. Values are means±S.E. (Standard Error).
A time and dose-dependent inhibitory effect of all 15 imido-substituted naphthoquinone compounds was assessed on their activity on promastigotes of L. donovani. Promastigotes were plated in 96-well plates and incubated in different concentrations of each compound (0.03 to 44 μM), incubated for four hours and cell viabilities assayed by the resazurin assay. A four hour exposure was assessed by calculation of IC50 values of each compound. Values are means±S.E. (Standard Error).
Promastigotes were plated in 96-well plates and incubated in different concentrations of each compound (0.03 to 44 μM), incubated for six hours and cell viabilities assayed by the resazurin assay. A six hour exposure was assessed by calculation of IC50 values of each compound. Values are means±S.E. (Standard error).
A time and dose-dependent inhibitory effect of all 15 imido-substituted naphthoquinone compounds was assessed on their activity on promastigotes of L. donovani. Promastigotes were plated in 96-well plates and incubated in different concentrations of each compound (0.03 to 44 μM), incubated for twenty four hours and cell viabilities assayed by the resazurin assay. A twenty four hour exposure was assessed by calculation of IC50 values of each compound. Values are means±S.E. (Standard Error).

Series [3] in a line: In vivo cytotoxic assessment: serum AST and ALT in VL BALB/c mice. To be noted: compared with uninfected negative controls. How it is done:
Serum was collected from infected, treated and non-treated mice 14 days post infection and 7 days from the start of treatment for the determination of alanine amino transferase (ALT) and aspartate amino transferase (AST) activities. Assays were done in 96 well microtiter plates and samples and standards were run in duplicates or triplicates. For ALT, 2 μl of serum from infected treated and untreated samples were incubated with 10 μl of ALT substrate solution (1.78 g DL-alanine and 30 mg α-keto glutarate in 20 ml of phosphate buffer containing 1.25 ml of 0.4 M NaOH. Volume made up to 100 ml with buffer, pH 7.4. 1 ml of chloroform as preservative. Stable for 2 months at 2-8° C.), mixed and incubated at 37° C. for 30 minutes. 10 μl of dinitrophenolhydrazine (2,4 DNPH) was added. Blanks (ddH2O) and negative (not infected) samples were then added. Samples were mixed and incubated at room temperature for 20 minutes. 100 μl of 0.4 M NaOH was added, mixed and incubated at room temperature for 5 min. Plates were read at 490 nm. For AST, 2 μl of test and positive (infected, treated and untreated) samples were incubated with 10 μl of AST substrate solution (2.66 g DL-aspartic acid and 30 mg α-keto glutarate in 20.5 ml of 1 M NaOH pH 7.4, volume made up to 100 ml with phosphate buffer. 1 ml of chloroform was added as preservative. This was stable for 2 months at 2-8° C.) and incubated at 37° C. for 1 hr. 10 μl of 2,4 DNPH added and mixed. 2 μl of negative controls (not infected) and blanks (ddH2O) added and mixed and then incubated at room temperature for 20 min. 100 μl of 0.4 M NaOH was added, mixed and incubated at room temperature for 5 min and read at 490 nm. The enzyme activity was determined from the standard curve drawn using sodium pyruvate as standard solution (2 mM/ml pyruvate). Enzyme activities were expressed as units/ml. Reference ranges by this method are: AST; 0.096-3.8 U/ml and ALT; 0.112-3.0 U/ml. (Mallick et al., 2003; Reitman and Frankel, 1957).
In order to assess in vivo cytotoxicity of four naphthoquinone compounds (IMDNQ4, IMD8, IMDNQ 10, and IMDNQ 15), serum aspartate aminotransferase (AST), and alanine aminotransferase (ALT) levels were analyzed and compared to those in untreated controls. The assay range for AST is 0.096-3.8 U/ml (mean assay range is 1.95 U/ml) and for ALT assay, 0.112-3.0 U/ml (mean assay range is 1.56 U/ml). The results are expressed as percent increase or decrease in AST or ALT levels.

Series [4] relates to NIH 3T3 BALB/c mouse fibroblast cell line. The series can be described thus: Cytotoxic assessment on NIH 3T3 BALB/c mouse fibroblasts (resazurin assay). To be noted: for IC50: read-out: IC50 (μM) Fibroblasts, NIH 3T3 BALB/c mouse fibroblasts, 48 hrs, resazurin assay, means ± S.E.; for cytotoxicity compared with Amphotericin B: Balb/C 3T3 mouse fibroblast cell line, FIG. 2. For orientation: Alamar Blue is a resazurin reagent that responds to reducing activity.
Method: Fibroblasts cells (4×10^4 cells/nil and adding 100 μl per well) were incubated with different concentrations of the naphthoquinone compounds (FIGS. 1) (3, 7, 13, 29, 33, and 44 μM) for 48 hrs after which viability of live fibroblast cells was determined by the Resazurin Method using a microplate reader (Bio-Tek Instruments EL311).
NIH 3T3 mouse fibroblasts were maintained in Roswell Park Memorial Institute (RPMI) medium supplemented with 10% Fetal calf serum, 50 units/ml penicillin, 50 units/ml streptomycin B in a humidified incubator at 37° C. in the presence of 5% CO2 (Scala et al., 2010).
Assays were performed to assess the cytotoxicity of these compounds in 96-well microtiter plates, with each well containing 100 μl of RPMI medium supplemented with 10% bovine calf scrum with 50 U/ml Pen-Strep. The cells were plated at a concentration of 4×10^3 cells/well (4×10^4 cells/ml). Fibroblast cells were then incubated with compounds for 48 hrs and inspected under an inverted microscope to assure growth of the controls and sterile conditions. 10 μl of resazurin solution (12.5 mg resazurin dissolved in 100 nil distilled water) were added to each well and the plates were incubated for another 2 hrs. The plates were read with a microplate reader at 570 nm. Experiments were done at least 3 times in triplicates (Scala et al., 2010).
Cell viability was determined using Resazurin Assay. The IC50 values were calculated and expressed as means±S.E (standard error).

The mark [5] stands for this setting: Leishmania donovani, 2 h, read-out: Antileishmanial Activity IC50 (μM) 2 hours.
Setting [6] is: Leishmania donovani, 4 h, read-out: Antileishmanial Activity IC50 (μM) 4 hours.
Where [7] appears, read: Leishmania donovani, 6 h, read-out: Antileishmanial Activity IC50 (μM) 6 hours.
[8] abbreviates: Leishmania donovani, 24 h, read-out: Antileishmanial Activity IC50 (μM) 24 hours.

Where “and” joins values, the source holds several entries; their conditions need not be identical. Identical values can stand only once. Like-named read-outs stand apart in the source and are kept apart here.

Usually IC50 stands for the concentration at which inhibition is half-maximal. For the compound `C[C@@H]1[C@H](O)[C@@H](C)/C=C/C=C/C=C/C=C/C=C/C=C/C=C/[C@H](O[C@@H]2O[C@H](C)[C@@H](O)[C@H](N)[C@@H]2O)C[C@@H]2O[C@](O)(C[C@@H](O)C[C@@H](O)[C@H](O)CC[C@@H](O)C[C@@H](O)CC(=O)O[C@H]1C)C[C@H](O)[C@H]2C(=O)O` [Am. B., Amphotericin B, reference compound], the IC50 in series [1] (L. donovani amastigotes, 48 hrs exposure, resazurin assay, means ± S.E.) was 22.3 µM; in series [2] (promastigotes, 6 hours exposure, means ± S.E., read-out: Antileishmanial Activity IC50 (μM) 6 hours), 52 ± 12.2 µM; in series [2] (promastigotes, 24 hours exposure, means ± S.E., read-out: Antileishmanial Activity IC50 (μM) 24 hours) it was 4.1 ± 0.4 µM; in series [2] (read-out: Antileishmanial Activity IC50 (μM) 2 hours, promastigotes, 2 hours exposure, means ± S.E.), 3.09 ± 2 µM; in series [2] (read-out: Antileishmanial Activity IC50 (μM) 4 hours, promastigotes, 4 hours exposure, means ± S.E.) it was 4.49 ± 0.3 µM; in series [4], 1.18 µM. In series [3] (20 mg/kg), the “Serum ALT Increase (%)” value is 100%. Further, the “Serum AST Increase (%)” value in series [3] (20 mg/kg) is recorded as 88.05%.
Regarding `NC1=C(Br)C(=O)c2ccccc2C1=O` [IMD8, 2-Amino-3-bromo-1,4-naphthoquinone], the half-inhibitory concentration (IC50) in series [1] (Leishmania donovani, 48 h) came out at 2.07 µM; in series [2] (setting [5]), 0.021 ± 0.001 µM; in series [2] (setting [6]) it was 64.2 ± 11.8 µM; in series [2] (setting [7]) it was 23100 µM; in series [2] (setting [8]) it was 12 ± 0.8 µM. Also, in series [1], the “SI Values Amastigotes” value is 6858.62±3975.5 and 6858.62. In addition, the “Serum ALT Increase (%)” value in series [3] (5 mg/kg), in series [3] (20 mg/kg) and in series [3] (50 mg/kg) was 100% throughout. Also, the “Serum AST Increase (%)” value was 82.69% in series [3] (5 mg/kg); 87.48% and 85.17% in series [3] (20 mg/kg); 85.65% and 82.69% in series [3] (50 mg/kg). Also, the “cytotoxicity compared with Amphotericin B” value in series [4] is on record as “far less cytotoxic than Amphotericin B”.
On to `O=C1C(Cl)=C(N(C(=O)c2cccc(Cl)c2)C(=O)c2cccc(Cl)c2)C(=O)c2ccccc21` [IMDNQ4, 3-Chloro-N-(3-chlorobenzoyl)-N-(3-chloro-1,4-dioxo-1,4-dihydronaphthalen-2-yl)-benzamide], for which the half-maximal inhibitory concentration (IC50) was determined as 1.19 µM in series [1] (Leishmania donovani, 48 h); 3.52 ± 3.6 µM in series [2] (setting [5]); 21.5 ± 9.6 µM in series [2] (setting [6]); 4.11 ± 6.3 µM in series [2] (setting [7]); 3.96 ± 1.3 µM in series [2] (setting [8]); 168 µM in series [4]. In series [1], the “SI Values Amastigotes” value was 141.26±56.8 and 141.26. Moreover, the “Serum ALT Increase (%)” value in series [3] (5 mg/kg), in series [3] (20 mg/kg) and in series [3] (50 mg/kg) was 100% throughout. Besides, the “Serum AST Increase (%)” value in series [3] (5 mg/kg) is listed as 87.40%; in series [3] (20 mg/kg), 87.48%; in series [3] (50 mg/kg), 85.65%. For the same compound, the “cytotoxicity compared with Amphotericin B” value in series [4] is reported as “far less cytotoxic than Amphotericin B”.
With `CCCC(=O)N(C(=O)CCC)C1=C(Cl)C(=O)c2ccccc2C1=O` [IMDNQ15], the half-maximal inhibitory concentration (IC50) stood at 18.9 µM in series [1] (Leishmania donovani, 48 h); 8.6 ± 0.01 µM in series [2] (setting [5]); 116.35 ± 0.07 µM in series [2] (setting [7]); 3.96 µM in series [2] (setting [8]); 2.94 µM in series [4]. Further, in series [1], the “SI Values Amastigotes” value was 0.16±0.09 and 0.16. The “Serum ALT Increase (%)” value in series [3] (5 mg/kg), in series [3] (20 mg/kg) and in series [3] (50 mg/kg) was 100% each time. The “Serum AST Increase (%)” value in series [3] (5 mg/kg) is 87.95%; in series [3] (20 mg/kg) it was 90.34%; in series [3] (50 mg/kg) it was 91.91%.
